# From PubChem BioAssay (NCI)
#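 The compound was tested at five concentrations on cells cultured in 96-well plates, with a 48-hour exposure period. TGI: total growth inhibition.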
# Experiments:
# Assay in all cases: NCI anticancer screen, dose series, 48 h
# OVCAR-3 ovarian = test system: OVCAR-3 ovarian
# MDA-MB-435 = test system: MDA-MB-435
# K-562 leukemia = test system: K-562 leukemia
# CCRF-CEM leukemia = test system: CCRF-CEM leukemia
# SK-MEL-28 melanoma = test system: SK-MEL-28 melanoma
# NCI-H522 lung = test system: NCI-H522 lung
# MDA-MB-231 breast = test system: MDA-MB-231 breast
# RXF 393 renal = test system: RXF 393 renal
# T-47D breast = test system: T-47D breast
# SK-MEL-5 melanoma = test system: SK-MEL-5 melanoma
# SF-295 CNS = test system: SF-295 CNS
# IGROV1 ovarian = test system: IGROV1 ovarian
# HL-60(TB) leukemia = test system: HL-60(TB) leukemia
# NCI-H226 lung = test system: NCI-H226 lung
# SNB-19 CNS = test system: SNB-19 CNS
# OVCAR-8 ovarian = test system: OVCAR-8 ovarian
# NCI/ADR-RES ovarian = test system: NCI/ADR-RES ovarian
# UO-31 renal = test system: UO-31 renal
# CAKI-1 renal = test system: CAKI-1 renal
# OVCAR-4 ovarian = test system: OVCAR-4 ovarian
# 786-0 renal = test system: 786-0 renal
# SNB-75 CNS = test system: SNB-75 CNS
# KM12 colon = test system: KM12 colon
# TK-10 renal = test system: TK-10 renal
# SK-MEL-2 melanoma = test system: SK-MEL-2 melanoma
# HCT-116 colon = test system: HCT-116 colon
# SF-539 CNS = test system: SF-539 CNS
# HOP-62 NSCLC = test system: HOP-62 NSCLC
# NCI-H23 lung = test system: NCI-H23 lung
# PC-3 prostate = test system: PC-3 prostate
# EKVX NSCLC = test system: EKVX NSCLC
# MALME-3M melanoma = test system: MALME-3M melanoma
# MDA-N = test system: MDA-N
# UACC-257 melanoma = test system: UACC-257 melanoma
# HS 578T breast = test system: HS 578T breast
# HOP-92 NSCLC = test system: HOP-92 NSCLC
# M14 melanoma = test system: M14 melanoma
# A549 NSCLC = test system: A549 NSCLC
# OVCAR-5 ovarian = test system: OVCAR-5 ovarian
# SF-268 CNS = test system: SF-268 CNS
# MOLT-4 leukemia = test system: MOLT-4 leukemia
# HT29 colon = test system: HT29 colon
# LOX IMVI melanoma = test system: LOX IMVI melanoma
# NCI-H460 lung = test system: NCI-H460 lung
# SW-620 colon = test system: SW-620 colon
# UACC-62 melanoma = test system: UACC-62 melanoma
# ACHN renal = test system: ACHN renal
# SK-OV-3 ovarian = test system: SK-OV-3 ovarian
# BT-549 breast = test system: BT-549 breast
# DU-145 prostate = test system: DU-145 prostate
# HCT-15 colon = test system: HCT-15 colon
# COLO 205 colon = test system: COLO 205 colon
# U251 CNS = test system: U251 CNS
# SN12C renal = test system: SN12C renal
# HCC-2998 colon = test system: HCC-2998 colon
# A498 renal = test system: A498 renal
# MCF7 breast = test system: MCF7 breast
# RPMI-8226 leukemia = test system: RPMI-8226 leukemia
compound,measurement,setting,value
O=S(=O)(/N=C(\NO)Nc1ccc(Cl)cc1)c1cc2ccccc2o1,TGI,OVCAR-3 ovarian,28.5 µM
same,TGI,MDA-MB-435,29.7 µM
same,TGI,K-562 leukemia,> 100 µM
same,TGI,CCRF-CEM leukemia,57.4 µM
same,TGI,SK-MEL-28 melanoma,35 µM
same,TGI,NCI-H522 lung,25.7 µM
same,TGI,MDA-MB-231 breast,40.9 µM
same,TGI,RXF 393 renal,95 µM
same,TGI,T-47D breast,> 100 µM
same,TGI,SK-MEL-5 melanoma,30.9 µM
same,TGI,SF-295 CNS,47 µM
same,TGI,IGROV1 ovarian,30.7 µM
same,TGI,HL-60(TB) leukemia,37.5 µM
same,TGI,NCI-H226 lung,71.7 µM
same,TGI,SNB-19 CNS,> 100 µM
same,TGI,OVCAR-8 ovarian,39.8 µM
same,TGI,NCI/ADR-RES ovarian,55.1 µM
same,TGI,UO-31 renal,91.2 µM
same,TGI,CAKI-1 renal,36.7 µM
same,TGI,OVCAR-4 ovarian,56 µM
same,TGI,786-0 renal,39.3 µM
same,TGI,SNB-75 CNS,> 100 µM
same,TGI,KM12 colon,33.5 µM
same,TGI,TK-10 renal,> 100 µM
same,TGI,SK-MEL-2 melanoma,35.9 µM
same,TGI,HCT-116 colon,24.8 µM
same,TGI,SF-539 CNS,> 100 µM
same,TGI,HOP-62 NSCLC,83 µM
same,TGI,NCI-H23 lung,48 µM
same,TGI,PC-3 prostate,69 µM
same,TGI,EKVX NSCLC,41.9 µM
same,TGI,MALME-3M melanoma,45.2 µM
same,TGI,MDA-N,59.6 µM
same,TGI,UACC-257 melanoma,51.7 µM
same,TGI,HS 578T breast,52.8 µM
same,TGI,HOP-92 NSCLC,29 µM
same,TGI,M14 melanoma,49.6 µM
same,TGI,A549 NSCLC,> 100 µM
same,TGI,OVCAR-5 ovarian,57.2 µM
same,TGI,SF-268 CNS,55.7 µM
same,TGI,MOLT-4 leukemia,> 100 µM
same,TGI,HT29 colon,47.2 µM
same,TGI,LOX IMVI melanoma,23.9 µM
same,TGI,NCI-H460 lung,> 100 µM
same,TGI,SW-620 colon,65.1 µM
same,TGI,UACC-62 melanoma,29.3 µM
same,TGI,ACHN renal,46.1 µM
same,TGI,SK-OV-3 ovarian,62.3 µM
same,TGI,BT-549 breast,34.8 µM
same,TGI,DU-145 prostate,> 100 µM
same,TGI,HCT-15 colon,34.2 µM
same,TGI,COLO 205 colon,51.1 µM
same,TGI,U251 CNS,33.4 µM
same,TGI,SN12C renal,36.1 µM
O=C(O)c1cccc(CN2CCCCC2)c1,TGI,OVCAR-3 ovarian,> 100 µM
same,TGI,MDA-MB-435,> 100 µM
same,TGI,K-562 leukemia,> 100 µM
same,TGI,CCRF-CEM leukemia,> 100 µM
same,TGI,SK-MEL-28 melanoma,> 100 µM
same,TGI,NCI-H522 lung,> 100 µM
same,TGI,MDA-MB-231 breast,> 100 µM
same,TGI,RXF 393 renal,> 100 µM
same,TGI,T-47D breast,> 100 µM
same,TGI,HCC-2998 colon,> 100 µM
same,TGI,A498 renal,> 100 µM
same,TGI,SK-MEL-5 melanoma,> 100 µM
same,TGI,SF-295 CNS,> 100 µM
same,TGI,IGROV1 ovarian,> 100 µM
same,TGI,NCI-H226 lung,> 100 µM
same,TGI,SNB-19 CNS,> 100 µM
same,TGI,OVCAR-8 ovarian,> 100 µM
same,TGI,NCI/ADR-RES ovarian,> 100 µM
same,TGI,UO-31 renal,> 100 µM
same,TGI,CAKI-1 renal,> 100 µM
same,TGI,OVCAR-4 ovarian,> 100 µM
same,TGI,786-0 renal,> 100 µM
same,TGI,KM12 colon,> 100 µM
same,TGI,TK-10 renal,> 100 µM
same,TGI,SK-MEL-2 melanoma,> 100 µM
same,TGI,HCT-116 colon,> 100 µM
same,TGI,HOP-62 NSCLC,> 100 µM
same,TGI,NCI-H23 lung,> 100 µM
same,TGI,PC-3 prostate,> 100 µM
same,TGI,EKVX NSCLC,> 100 µM
same,TGI,MCF7 breast,> 100 µM
same,TGI,MALME-3M melanoma,> 100 µM
same,TGI,MDA-N,> 100 µM
same,TGI,UACC-257 melanoma,> 100 µM
same,TGI,HS 578T breast,> 100 µM
same,TGI,M14 melanoma,> 100 µM
same,TGI,A549 NSCLC,> 100 µM
same,TGI,OVCAR-5 ovarian,> 100 µM
same,TGI,RPMI-8226 leukemia,> 100 µM
same,TGI,SF-268 CNS,> 100 µM
same,TGI,MOLT-4 leukemia,> 100 µM
same,TGI,HT29 colon,> 100 µM
same,TGI,LOX IMVI melanoma,> 100 µM
same,TGI,NCI-H460 lung,> 100 µM
same,TGI,SW-620 colon,> 100 µM
same,TGI,UACC-62 melanoma,> 100 µM
same,TGI,ACHN renal,> 100 µM
same,TGI,SK-OV-3 ovarian,> 100 µM
same,TGI,BT-549 breast,> 100 µM
same,TGI,DU-145 prostate,> 100 µM
same,TGI,HCT-15 colon,> 100 µM
same,TGI,COLO 205 colon,> 100 µM
same,TGI,U251 CNS,> 100 µM
same,TGI,SN12C renal,> 100 µM
CO[C@]12C#CC=CC#C[C@@H](O)[C@]3(CCC1)O[C@@]23c1cccc(O)c1,TGI,OVCAR-3 ovarian,> 100 µM
same,TGI,MDA-MB-435,> 100 µM
same,TGI,K-562 leukemia,> 100 µM
same,TGI,SK-MEL-28 melanoma,> 100 µM
same,TGI,MDA-MB-231 breast,> 100 µM
same,TGI,RXF 393 renal,> 100 µM
same,TGI,T-47D breast,> 100 µM
same,TGI,HCC-2998 colon,> 100 µM
same,TGI,A498 renal,> 100 µM
same,TGI,SF-295 CNS,> 100 µM
same,TGI,NCI-H226 lung,> 100 µM
same,TGI,SNB-19 CNS,> 100 µM
same,TGI,OVCAR-8 ovarian,> 100 µM
same,TGI,NCI/ADR-RES ovarian,> 100 µM
same,TGI,UO-31 renal,> 100 µM
same,TGI,CAKI-1 renal,> 100 µM
same,TGI,OVCAR-4 ovarian,> 100 µM
same,TGI,786-0 renal,> 100 µM
same,TGI,SNB-75 CNS,> 100 µM
same,TGI,KM12 colon,> 100 µM
same,TGI,TK-10 renal,> 100 µM
same,TGI,SK-MEL-2 melanoma,> 100 µM
same,TGI,HCT-116 colon,> 100 µM
same,TGI,HOP-62 NSCLC,> 100 µM
same,TGI,NCI-H23 lung,> 100 µM
same,TGI,PC-3 prostate,> 100 µM
same,TGI,MCF7 breast,> 100 µM
same,TGI,MDA-N,> 100 µM
same,TGI,UACC-257 melanoma,> 100 µM
same,TGI,HS 578T breast,> 100 µM
same,TGI,M14 melanoma,> 100 µM
same,TGI,A549 NSCLC,> 100 µM
same,TGI,OVCAR-5 ovarian,> 100 µM
same,TGI,RPMI-8226 leukemia,> 100 µM
same,TGI,SF-268 CNS,> 100 µM
same,TGI,MOLT-4 leukemia,> 100 µM
same,TGI,LOX IMVI melanoma,> 100 µM
same,TGI,NCI-H460 lung,> 100 µM
same,TGI,SW-620 colon,> 100 µM
same,TGI,UACC-62 melanoma,> 100 µM
same,TGI,ACHN renal,> 100 µM
same,TGI,SK-OV-3 ovarian,> 100 µM
same,TGI,BT-549 breast,> 100 µM
same,TGI,DU-145 prostate,> 100 µM
same,TGI,HCT-15 colon,> 100 µM
same,TGI,COLO 205 colon,> 100 µM
same,TGI,U251 CNS,> 100 µM
same,TGI,SN12C renal,> 100 µM
